{"source": "patent US9708314B2", "about": "“Heterocyclic amide compound” (NISSAN CHEMICAL INDUSTRIES, LTD., priority 2013, dated 2017)", "assay_type_in_all_cases": "in vivo", "key": {"[1]": {"system": "Echinochloa oryzacola Vasing.", "test": "Test Example 1: herbicidal activity, application before weed generation in submerged conditions", "settings": "Application herbicide amount 320 g/ha; Seventeenth Table", "procedure,_shortened": "(§1)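 Submerged pot test: alluvial soil, 4 cm water, seeds sown mixed, 2.5-leaf rice transplanted; emulsion in water applied to surface day of sowing, dose g/ha; greenhouse 25–30° C.; 3 wk; 0–5 rating.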"}, "[2]": {"system": "Scirpus juncoides", "test": "Test Example 1: herbicidal activity, application before weed generation in submerged conditions", "settings": "Application herbicide amount 320 g/ha; Seventeenth Table", "procedure,_shortened": "as §1"}, "[3]": {"system": "Monochoria vaginalis", "test": "Test Example 1: herbicidal activity, application before weed generation in submerged conditions", "settings": "Application herbicide amount 320 g/ha; Seventeenth Table", "procedure,_shortened": "as §1"}, "[4]": {"system": "Zea mays", "test": "Test Example 4: effect on crop by application to foliage (diluvial soil, plastic box)", "settings": "Application herbicide amount 320 g/ha; foliage application", "procedure,_shortened": "(§2)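 Read-out is a 0–5 visual grade of herbicidal ratio (5: ≥90%, almost withered; 0: ≤5%) taken three weeks after treatment. Compound was applied as a diluted emulsion to stem and leaf parts of 14-day greenhouse-grown plants (25° C. to 30° C.) at rates expressed as g/ha.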"}, "[5]": {"system": "Triticum aestivum", "test": "Test Example 4: effect on crop by application to foliage (diluvial soil, plastic box)", "settings": "Application herbicide amount 320 g/ha; foliage application", "procedure,_shortened": "as §2"}, "[6]": {"system": "Beta vulgaris ssp. vulgaris", "test": "Test Example 4: effect on crop by application to foliage (diluvial soil, plastic box)", "settings": "Application herbicide amount 320 g/ha; foliage application", "procedure,_shortened": "as §2"}, "[7]": {"system": "Brassica campestris L.", "test": "Test Example 4: effect on crop by application to foliage (diluvial soil, plastic box)", "settings": "Application herbicide amount 320 g/ha; foliage application", "procedure,_shortened": "as §2"}, "[8]": {"system": "Glycine max", "test": "Test Example 4: effect on crop by application to foliage (diluvial soil, plastic box)", "settings": "Application herbicide amount 320 g/ha; foliage application", "procedure,_shortened": "as §2"}, "[9]": {"system": "transplanted Oryza sativa", "test": "Test Example 1: effect on crop, application before weed generation in submerged conditions", "settings": "Application herbicide amount 320 g/ha; Seventeenth Table", "procedure,_shortened": "as §1"}, "[10]": {"system": "Veronica persica", "test": "Test Example 4: herbicidal effect by application to foliage (diluvial soil, plastic box)", "settings": "Application herbicide amount 320 g/ha; foliage application", "procedure,_shortened": "as §2"}, "[11]": {"system": "Lolium multiflorum Lam.", "test": "Test Example 4: herbicidal effect by application to foliage (diluvial soil, plastic box)", "settings": "Application herbicide amount 320 g/ha; foliage application", "procedure,_shortened": "as §2"}, "[12]": {"system": "Digitaria ciliaris", "test": "Test Example 4: herbicidal effect by application to foliage (diluvial soil, plastic box)", "settings": "Application herbicide amount 320 g/ha; foliage application", "procedure,_shortened": "as §2"}, "[13]": {"system": "Amaranthus retroflexus", "test": "Test Example 4: herbicidal effect by application to foliage (diluvial soil, plastic box)", "settings": "Application herbicide amount 320 g/ha; foliage application", "procedure,_shortened": "as §2"}, "[14]": {"system": "Setaria viridis", "test": "Test Example 4: herbicidal effect by application to foliage (diluvial soil, plastic box)", "settings": "Application herbicide amount 320 g/ha; foliage application", "procedure,_shortened": "as §2"}, "[15]": {"system": "Chenopodium album", "test": "Test Example 4: herbicidal effect by application to foliage (diluvial soil, plastic box)", "settings": "Application herbicide amount 320 g/ha; foliage application", "procedure,_shortened": "as §2"}, "[16]": {"system": "Echinochloa crus-galli var. crus-galli", "test": "Test Example 4: herbicidal effect by application to foliage (diluvial soil, plastic box)", "settings": "Application herbicide amount 320 g/ha; foliage application", "procedure,_shortened": "as §2"}, "[17]": {"system": "Abutilon theophrasti", "test": "Test Example 4: herbicidal effect by application to foliage (diluvial soil, plastic box)", "settings": "Application herbicide amount 320 g/ha; foliage application", "procedure,_shortened": "as §2"}, "[18]": {"system": "Avena fatua", "test": "Test Example 4: herbicidal effect by application to foliage (diluvial soil, plastic box)", "settings": "Application herbicide amount 320 g/ha; foliage application", "procedure,_shortened": "as §2"}, "[19]": {"system": "Galium spurium", "test": "Test Example 4: herbicidal effect by application to foliage (diluvial soil, plastic box)", "settings": "Application herbicide amount 320 g/ha; foliage application", "procedure,_shortened": "as §2"}, "[20]": {"system": "Apera spica-venti.", "test": "Test Example 4: herbicidal effect by application to foliage (diluvial soil, plastic box)", "settings": "Application herbicide amount 320 g/ha; foliage application", "procedure,_shortened": "as §2"}, "[21]": {"system": "Stellaria media", "test": "Test Example 4: herbicidal effect by application to foliage (diluvial soil, plastic box)", "settings": "Application herbicide amount 320 g/ha; foliage application", "procedure,_shortened": "as §2"}, "[22]": {"system": "Alopecurus myosuroides", "test": "Test Example 4: herbicidal effect by application to foliage (diluvial soil, plastic box)", "settings": "Application herbicide amount 320 g/ha; foliage application", "procedure,_shortened": "as §2"}}}
{"smiles": "CC(=O)CSc1nnc2c(C(=O)Nc3nnc(C)o3)ccc(C(F)(F)F)n12", "note": "[1-125]", "values": [{"measurement": "A: Echinochloa oryzicola Vasing. (herbicidal effect grade)", "setting": "[1]", "value": "0 (Herbicidal ratio of 5% or less (almost no effect))"}, {"measurement": "B: Scirpus juncoides (herbicidal effect grade)", "setting": "[2]", "value": "3 (Herbicidal ratio of 40% or more and less than 70%)"}, {"measurement": "C: Monochoria vaginalis (herbicidal effect grade)", "setting": "[3]", "value": "1 (Herbicidal ratio of 5% or more and less than 20%)"}, {"measurement": "c (Zea mays) effect on crop grade", "setting": "[4]", "value": "2 (Herbicidal ratio of 20% or more and less than 40%)"}, {"measurement": "e (Triticum aestivum) effect on crop grade", "setting": "[5]", "value": "1 (Herbicidal ratio of 5% or more and less than 20%)"}, {"measurement": "f (Beta vulgaris ssp. vulgaris) effect on crop grade", "setting": "[6]", "value": "5 (Herbicidal ratio of 90% or more (almost completely withered))"}, {"measurement": "g (Brassica campestris L.) effect on crop grade", "setting": "[7]", "value": "3 (Herbicidal ratio of 40% or more and less than 70%)"}, {"measurement": "d (Glycine max) effect on crop grade", "setting": "[8]", "value": "3 (Herbicidal ratio of 40% or more and less than 70%)"}, {"measurement": "a: transplanted Oryza sativa (effect on crop grade)", "setting": "[9]", "value": "0 (Herbicidal ratio of 5% or less (almost no effect))"}, {"measurement": "R (Veronica persica) herbicidal effect grade", "setting": "[10]", "value": "0 (Herbicidal ratio of 5% or less (almost no effect))"}, {"measurement": "K (Lolium multiflorum Lam.) herbicidal effect grade", "setting": "[11]", "value": "0 (Herbicidal ratio of 5% or less (almost no effect))"}, {"measurement": "F (Digitaria ciliaris) herbicidal effect grade", "setting": "[12]", "value": "4 (Herbicidal ratio of 70% or more and less than 90%)"}, {"measurement": "N (Amaranthus retroflexus) herbicidal effect grade", "setting": "[13]", "value": "3 (Herbicidal ratio of 40% or more and less than 70%)"}, {"measurement": "G (Setaria viridis) herbicidal effect grade", "setting": "[14]", "value": "1 (Herbicidal ratio of 5% or more and less than 20%)"}, {"measurement": "O (Chenopodium album) herbicidal effect grade", "setting": "[15]", "value": "5 (Herbicidal ratio of 90% or more (almost completely withered))"}, {"measurement": "H (Echinochloa crus-galli var. crus-galli) herbicidal effect grade", "setting": "[16]", "value": "4 (Herbicidal ratio of 70% or more and less than 90%)"}, {"measurement": "M (Abutilon theophrasti) herbicidal effect grade", "setting": "[17]", "value": "3 (Herbicidal ratio of 40% or more and less than 70%)"}, {"measurement": "I (Avena fatua) herbicidal effect grade", "setting": "[18]", "value": "1 (Herbicidal ratio of 5% or more and less than 20%)"}, {"measurement": "Q (Galium spurium) herbicidal effect grade", "setting": "[19]", "value": "0 (Herbicidal ratio of 5% or less (almost no effect))"}, {"measurement": "L (Apera spica-venti.) herbicidal effect grade", "setting": "[20]", "value": "0 (Herbicidal ratio of 5% or less (almost no effect))"}, {"measurement": "P (Stellaria media) herbicidal effect grade", "setting": "[21]", "value": "4 (Herbicidal ratio of 70% or more and less than 90%)"}, {"measurement": "J (Alopecurus myosuroides) herbicidal effect grade", "setting": "[22]", "value": "0 (Herbicidal ratio of 5% or less (almost no effect))"}]}
{"smiles": "Cc1nnc(NC(=O)c2ccc(C(F)(F)F)n3c(SCC4OCCO4)nnc23)o1", "note": "[1-126]", "values": [{"measurement": "A: Echinochloa oryzicola Vasing. (herbicidal effect grade)", "setting": "[1]", "value": "3 (Herbicidal ratio of 40% or more and less than 70%)"}, {"measurement": "B: Scirpus juncoides (herbicidal effect grade)", "setting": "[2]", "value": "4 (Herbicidal ratio of 70% or more and less than 90%)"}, {"measurement": "C: Monochoria vaginalis (herbicidal effect grade)", "setting": "[3]", "value": "2 (Herbicidal ratio of 20% or more and less than 40%)"}, {"measurement": "c (Zea mays) effect on crop grade", "setting": "[4]", "value": "1 (Herbicidal ratio of 5% or more and less than 20%)"}, {"measurement": "e (Triticum aestivum) effect on crop grade", "setting": "[5]", "value": "0 (Herbicidal ratio of 5% or less (almost no effect))"}, {"measurement": "f (Beta vulgaris ssp. vulgaris) effect on crop grade", "setting": "[6]", "value": "5 (Herbicidal ratio of 90% or more (almost completely withered))"}, {"measurement": "g (Brassica campestris L.) effect on crop grade", "setting": "[7]", "value": "3 (Herbicidal ratio of 40% or more and less than 70%)"}, {"measurement": "d (Glycine max) effect on crop grade", "setting": "[8]", "value": "2 (Herbicidal ratio of 20% or more and less than 40%)"}, {"measurement": "a: transplanted Oryza sativa (effect on crop grade)", "setting": "[9]", "value": "0 (Herbicidal ratio of 5% or less (almost no effect))"}, {"measurement": "R (Veronica persica) herbicidal effect grade", "setting": "[10]", "value": "4 (Herbicidal ratio of 70% or more and less than 90%)"}, {"measurement": "K (Lolium multiflorum Lam.) herbicidal effect grade", "setting": "[11]", "value": "0 (Herbicidal ratio of 5% or less (almost no effect))"}, {"measurement": "F (Digitaria ciliaris) herbicidal effect grade", "setting": "[12]", "value": "4 (Herbicidal ratio of 70% or more and less than 90%)"}, {"measurement": "N (Amaranthus retroflexus) herbicidal effect grade", "setting": "[13]", "value": "3 (Herbicidal ratio of 40% or more and less than 70%)"}, {"measurement": "G (Setaria viridis) herbicidal effect grade", "setting": "[14]", "value": "3 (Herbicidal ratio of 40% or more and less than 70%)"}, {"measurement": "O (Chenopodium album) herbicidal effect grade", "setting": "[15]", "value": "5 (Herbicidal ratio of 90% or more (almost completely withered))"}, {"measurement": "H (Echinochloa crus-galli var. crus-galli) herbicidal effect grade", "setting": "[16]", "value": "5 (Herbicidal ratio of 90% or more (almost completely withered))"}, {"measurement": "M (Abutilon theophrasti) herbicidal effect grade", "setting": "[17]", "value": "3 (Herbicidal ratio of 40% or more and less than 70%)"}, {"measurement": "I (Avena fatua) herbicidal effect grade", "setting": "[18]", "value": "0 (Herbicidal ratio of 5% or less (almost no effect))"}, {"measurement": "Q (Galium spurium) herbicidal effect grade", "setting": "[19]", "value": "1 (Herbicidal ratio of 5% or more and less than 20%)"}, {"measurement": "L (Apera spica-venti.) herbicidal effect grade", "setting": "[20]", "value": "1 (Herbicidal ratio of 5% or more and less than 20%)"}, {"measurement": "P (Stellaria media) herbicidal effect grade", "setting": "[21]", "value": "5 (Herbicidal ratio of 90% or more (almost completely withered))"}, {"measurement": "J (Alopecurus myosuroides) herbicidal effect grade", "setting": "[22]", "value": "0 (Herbicidal ratio of 5% or less (almost no effect))"}]}
